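Protocol summary: plate cells (96-well), add compound at 5 concentrations, incubate 48 h, interpolate endpoints linearly. At the GI50, growth is halved. TGI marks complete inhibition of growth.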 Where a SMILES comes first, the peptide text is derived from it. The star is where a group is joined. Boc = CC(C)(C)OC(=O)*; OBn = c1ccc(CO*)cc1
Key:
Test in all cases: NCI tumour cell line growth inhibition, 48 h
[1] = test system: U251 CNS
[2] = test system: OVCAR-8 ovarian
[3] = test system: LOX IMVI melanoma
[4] = test system: HOP-62 NSCLC
[5] = test system: NCI-H460 lung
[6] = test system: DU-145 prostate
[7] = test system: UACC-62 melanoma
[8] = test system: CAKI-1 renal
[9] = test system: RPMI-8226 leukemia
[10] = test system: HCT-15 colon
[11] = test system: HS 578T breast
[12] = test system: MDA-MB-435
[13] = test system: SR leukemia
[14] = test system: MCF7 breast
[15] = test system: KM12 colon
[16] = test system: SN12C renal
[17] = test system: SF-539 CNS
[18] = test system: PC-3 prostate
[19] = test system: NCI-H23 lung
[20] = test system: MOLT-4 leukemia
[21] = test system: SK-MEL-28 melanoma
[22] = test system: BT-549 breast
[23] = test system: NCI-H522 lung
[24] = test system: HCT-116 colon
[25] = test system: UACC-257 melanoma
[26] = test system: EKVX NSCLC
[27] = test system: ACHN renal
[28] = test system: UO-31 renal
[29] = test system: SW-620 colon
[30] = test system: OVCAR-5 ovarian
[31] = test system: RXF 393 renal
[32] = test system: TK-10 renal
[33] = test system: MDA-MB-231 breast
[34] = test system: SF-295 CNS
[35] = test system: OVCAR-3 ovarian
[36] = test system: SF-268 CNS
[37] = test system: K-562 leukemia
[38] = test system: NCI-H226 lung
[39] = test system: SK-MEL-2 melanoma
[40] = test system: 786-0 renal
[41] = test system: A549 NSCLC
[42] = test system: SK-MEL-5 melanoma
[43] = test system: A498 renal
[44] = test system: IGROV1 ovarian
[45] = test system: NCI/ADR-RES ovarian
[46] = test system: SNB-75 CNS
[47] = test system: HT29 colon
[48] = test system: SNB-19 CNS
[49] = test system: HL-60(TB) leukemia
[50] = test system: COLO 205 colon
[51] = test system: MALME-3M melanoma
[52] = test system: OVCAR-4 ovarian
[53] = test system: M14 melanoma
[54] = test system: SK-OV-3 ovarian
[55] = test system: CCRF-CEM leukemia
[56] = test system: HCC-2998 colon
[57] = test system: T-47D breast

Compound `Cc1sc(/N=C2/NC(=O)CS2)nc1-c1nc(/N=C2/NC(=O)CS2)sc1C` has a GI50 [1] of over 50 µM, a TGI [1] of over 50 µM and a GI50 [2] of over 50 µM. The TGI [2] was over 50 µM, the GI50 [3] was over 50 µM and the TGI [3] was over 50 µM. It also gave a GI50 [4] of 35.2 µM, a TGI [4] of over 50 µM and a GI50 [5] of 23.4 µM. The TGI [5] was over 50 µM, the GI50 [6] was over 50 µM and the TGI [6] was over 50 µM. It also gave a GI50 [7] of 15.9 µM, a TGI [7] of over 50 µM and a GI50 [8] of over 50 µM. It also gave a TGI [8] of over 50 µM, a GI50 [9] of 9.59 µM and a TGI [9] of 49.1 µM. It also gave a GI50 [10] of over 50 µM, a TGI [10] of over 50 µM and a GI50 [11] of 2.17 µM. It also gave a TGI [11] of 36.3 µM, a GI50 [12] of over 50 µM and a TGI [12] of over 50 µM. It also gave a GI50 [13] of 24.9 µM, a TGI [13] of over 50 µM and a GI50 [14] of 19.7 µM. It also gave a TGI [14] of over 50 µM, a GI50 [15] of 28.9 µM and a TGI [15] of over 50 µM. For the same compound, the GI50 [16] was over 50 µM, the TGI [16] was over 50 µM and the GI50 [17] was over 50 µM. It also gave a TGI [17] of over 50 µM, a GI50 [18] of 16.8 µM and a TGI [18] of over 50 µM. It also gave a GI50 [19] of over 50 µM, a TGI [19] of over 50 µM and a GI50 [20] of 19.9 µM. It also gave a TGI [20] of over 50 µM, a GI50 [21] of 26.7 µM and a TGI [21] of over 50 µM. The GI50 [22] was over 50 µM, the TGI [22] was over 50 µM and the GI50 [23] was over 50 µM. The TGI [23] was over 50 µM, the GI50 [24] was 15.7 µM and the TGI [24] was over 50 µM. For the same compound, the GI50 [25] was over 50 µM, the TGI [25] was over 50 µM and the GI50 [26] was 1.33 µM. For the same compound, the TGI [26] was over 50 µM, the GI50 [27] was over 50 µM and the TGI [27] was over 50 µM. The GI50 [28] was over 50 µM, the TGI [28] was over 50 µM and the GI50 [29] was over 50 µM. For the same compound, the TGI [29] was over 50 µM, the GI50 [30] was over 50 µM and the TGI [30] was over 50 µM. It also gave a GI50 [31] of over 50 µM, a TGI [31] of over 50 µM and a GI50 [32] of over 50 µM. For the same compound, the TGI [32] was over 50 µM, the GI50 [33] was over 50 µM and the TGI [33] was over 50 µM. For the same compound, the GI50 [34] was over 50 µM, the TGI [34] was over 50 µM and the GI50 [35] was over 50 µM. For the same compound, the TGI [35] was over 50 µM, the GI50 [36] was 36.4 µM and the TGI [36] was over 50 µM. The GI50 [37] was 26.8 µM, the TGI [37] was over 50 µM and the GI50 [38] was over 50 µM. For the same compound, the TGI [38] was over 50 µM, the GI50 [39] was over 50 µM and the TGI [39] was over 50 µM. For the same compound, the GI50 [40] was over 50 µM, the TGI [40] was over 50 µM and the GI50 [41] was over 50 µM. The TGI [41] was over 50 µM, the GI50 [42] was 31.2 µM and the TGI [42] was over 50 µM. The GI50 [43] was 47.1 µM, the TGI [43] was over 50 µM and the GI50 [44] was over 50 µM. It also gave a TGI [44] of over 50 µM, a GI50 [45] of 21.2 µM and a TGI [45] of over 50 µM. For the same compound, the GI50 [46] was over 50 µM, the TGI [46] was over 50 µM and the GI50 [47] was 32.2 µM. The TGI [47] was over 50 µM, the GI50 [48] was over 50 µM and the TGI [48] was over 50 µM. The GI50 [49] was over 50 µM, the TGI [49] was over 50 µM and the GI50 [50] was over 50 µM. It also gave a TGI [50] of over 50 µM.

In the case of `CC(C)CC(NC(=O)OC(C)(C)C)C(=O)NC(CCC(=O)OCc1ccccc1)C(N)=O` (stereo not drawn) (Boc-Leu-Glu(OBn)-NH2; configuration not given here), the GI50 [51] is reported as 32.2 µg/mL, the GI50 [7] is reported as 47.9 µg/mL and the GI50 [9] is reported as 43.9 µg/mL. It also gave a GI50 [21] of 20.8 µg/mL, a TGI [21] of 51.4 µg/mL and a GI50 [23] of 29.4 µg/mL. It also gave a GI50 [25] of 20.1 µg/mL, a TGI [25] of 85.9 µg/mL and a GI50 [52] of 34.8 µg/mL. The GI50 [28] was 85.5 µg/mL, the GI50 [53] was 32.7 µg/mL and the GI50 [37] was 54.1 µg/mL. The GI50 [43] was 45.5 µg/mL, the GI50 [46] was 32.7 µg/mL and the GI50 [50] was 87.1 µg/mL.

`CCS/C(Nc1ccccc1)=C(\C#N)C(=O)N/N=C/c1ccc(Cl)cc1Cl` gave a GI50 [1] of 3.95 µM, a TGI [1] of over 100 µM and a GI50 [2] of 4.81 µM. It also gave a TGI [2] of over 100 µM, a GI50 [3] of 5.88 µM and a TGI [3] of over 100 µM. For the same compound, the GI50 [51] was 9.3 µM, the TGI [51] was over 100 µM and the GI50 [4] was 3.66 µM. For the same compound, the TGI [4] was over 100 µM, the GI50 [5] was 3.16 µM and the TGI [5] was over 100 µM. It also gave a GI50 [6] of 3.57 µM, a TGI [6] of over 100 µM and a GI50 [7] of 2.74 µM. The TGI [7] was over 100 µM, the GI50 [8] was 2.39 µM and the TGI [8] was over 100 µM. It also gave a GI50 [54] of 3.72 µM, a TGI [54] of over 100 µM and a GI50 [9] of 3.68 µM. The TGI [9] was over 100 µM, the GI50 [10] was 2.9 µM and the TGI [10] was over 100 µM. It also gave a GI50 [11] of 2.74 µM, a TGI [11] of 98.7 µM and a GI50 [12] of 0.419 µM. The TGI [12] was 2.23 µM, the GI50 [13] was 3.45 µM and the TGI [13] was over 100 µM. It also gave a GI50 [14] of 2.99 µM, a TGI [14] of over 100 µM and a GI50 [15] of 4.04 µM. It also gave a TGI [15] of over 100 µM, a GI50 [16] of 6.92 µM and a TGI [16] of over 100 µM. It also gave a GI50 [55] of 3.07 µM, a TGI [55] of over 100 µM and a GI50 [17] of 2.89 µM. For the same compound, the TGI [17] was 20.6 µM, the GI50 [56] was 5.47 µM and the TGI [56] was over 100 µM. It also gave a GI50 [19] of 6.47 µM, a TGI [19] of over 100 µM and a GI50 [20] of 3.48 µM. It also gave a TGI [20] of over 100 µM, a GI50 [21] of 23.6 µM and a TGI [21] of over 100 µM. For the same compound, the GI50 [22] was 2.8 µM, the TGI [22] was over 100 µM and the GI50 [24] was 2.99 µM. For the same compound, the TGI [24] was over 100 µM, the GI50 [25] was 25.7 µM and the TGI [25] was over 100 µM. The GI50 [26] was 5.09 µM, the TGI [26] was over 100 µM and the GI50 [27] was 7.08 µM. It also gave a TGI [27] of over 100 µM, a GI50 [52] of 6.57 µM and a TGI [52] of over 100 µM. It also gave a GI50 [28] of 6.91 µM, a TGI [28] of over 100 µM and a GI50 [29] of 4.65 µM. It also gave a TGI [29] of over 100 µM, a GI50 [30] of 8.25 µM and a TGI [30] of over 100 µM. The GI50 [31] was 2.06 µM, the TGI [31] was 8.66 µM and the GI50 [32] was 10.2 µM. For the same compound, the TGI [32] was over 100 µM, the GI50 [33] was 4.75 µM and the TGI [33] was over 100 µM. For the same compound, the GI50 [34] was 2.89 µM, the TGI [34] was over 100 µM and the GI50 [35] was 2.8 µM. It also gave a TGI [35] of 10.7 µM, a GI50 [53] of 2.01 µM and a TGI [53] of 9.61 µM. The GI50 [36] was 6.58 µM, the TGI [36] was over 100 µM and the GI50 [37] was 0.855 µM. For the same compound, the TGI [37] was over 100 µM, the GI50 [38] was 4 µM and the TGI [38] was over 100 µM. The GI50 [39] was 3.24 µM, the TGI [39] was 43.6 µM and the GI50 [40] was 3.5 µM. The TGI [40] was over 100 µM, the GI50 [41] was 4.63 µM and the TGI [41] was over 100 µM. The GI50 [42] was 2.28 µM, the TGI [42] was 8.53 µM and the GI50 [43] was 1.87 µM. The TGI [43] was 37.8 µM, the GI50 [44] was 6.46 µM and the TGI [44] was over 100 µM. The GI50 [45] was 3.16 µM, the TGI [45] was over 100 µM and the GI50 [46] was 2.15 µM. It also gave a TGI [46] of 9.37 µM, a GI50 [57] of 4.03 µM and a TGI [57] of over 100 µM. It also gave a GI50 [47] of 3.7 µM, a TGI [47] of over 100 µM and a GI50 [48] of 4.17 µM. It also gave a TGI [48] of over 100 µM, a GI50 [49] of 3.2 µM and a TGI [49] of over 100 µM.
